Experimental data: the NIST ThermoML archive (doi:10.1021/je060026r)
± gives the expanded uncertainty stated by the source.

Test: excess molar enthalpy (molar enthalpy of mixing); xn = mol fraction of the nth substance listed
Details: 313.15 K, 101 kPa, Liquid, Flow calorimetry

COCC(C)O (stereo unspecified) [1-methoxy-2-propanol] + C1CCCCC1
Details | excess molar enthalpy [kcal/mol]
x1 = 0.0547 | 0.14 ± 0.00311
x1 = 0.109 | 0.213 ± 0.00454
x1 = 0.1626 | 0.261 ± 0.0055
x1 = 0.2158 | 0.295 ± 0.00621
x1 = 0.2684 | 0.319 ± 0.00693
x1 = 0.3205 | 0.333 ± 0.00717
x1 = 0.3721 | 0.341 ± 0.00717
x1 = 0.4232 | 0.344 ± 0.00741
x1 = 0.4738 | 0.341 ± 0.00717
x1 = 0.5239 | 0.335 ± 0.00717
x1 = 0.5736 | 0.321 ± 0.00693
x1 = 0.6227 | 0.305 ± 0.00645
x1 = 0.6715 | 0.283 ± 0.00598
x1 = 0.7197 | 0.258 ± 0.0055
x1 = 0.7675 | 0.227 ± 0.00478
x1 = 0.8149 | 0.191 ± 0.00406
x1 = 0.8618 | 0.15 ± 0.00335
x1 = 0.9083 | 0.105 ± 0.00229
x1 = 0.9544 | 0.0542 ± 0.00122

COCC(C)O (stereo unspecified) [1-methoxy-2-propanol] + c1ccccc1
Details | excess molar enthalpy [kcal/mol]
x1 = 0.0455 | 0.0767 ± 0.0017
x1 = 0.0914 | 0.124 ± 0.00263
x1 = 0.1377 | 0.155 ± 0.00335
x1 = 0.1845 | 0.176 ± 0.00382
x1 = 0.2317 | 0.188 ± 0.00406
x1 = 0.2794 | 0.194 ± 0.0043
x1 = 0.3276 | 0.195 ± 0.0043
x1 = 0.3763 | 0.193 ± 0.00406
x1 = 0.4254 | 0.186 ± 0.00406
x1 = 0.475 | 0.179 ± 0.00382
x1 = 0.5251 | 0.167 ± 0.00359
x1 = 0.5758 | 0.153 ± 0.00335
x1 = 0.6269 | 0.139 ± 0.00311
x1 = 0.6786 | 0.122 ± 0.00263
x1 = 0.7308 | 0.103 ± 0.00225
x1 = 0.7835 | 0.084 ± 0.00184
x1 = 0.8368 | 0.0643 ± 0.00143
x1 = 0.8906 | 0.0434 ± 0.00108
x1 = 0.945 | 0.0216 ± 0.001

CCCCOCCO [2-butoxyethan-1-ol] + C1CCCCC1
Details | excess molar enthalpy [kcal/mol]
x2 = 0.0414 | 0.0997 ± 0.00217
x2 = 0.0836 | 0.149 ± 0.00311
x2 = 0.1265 | 0.183 ± 0.00406
x2 = 0.1702 | 0.207 ± 0.00454
x2 = 0.2148 | 0.222 ± 0.00478
x2 = 0.2602 | 0.233 ± 0.00502
x2 = 0.3065 | 0.24 ± 0.00526
x2 = 0.3536 | 0.243 ± 0.00526
x2 = 0.4017 | 0.242 ± 0.00526
x2 = 0.4507 | 0.238 ± 0.00502
x2 = 0.5007 | 0.229 ± 0.00502
x2 = 0.5518 | 0.219 ± 0.00478
x2 = 0.6038 | 0.204 ± 0.0043
x2 = 0.6569 | 0.186 ± 0.00406
x2 = 0.7111 | 0.165 ± 0.00359
x2 = 0.7665 | 0.139 ± 0.00311
x2 = 0.823 | 0.11 ± 0.00239
x2 = 0.8807 | 0.077 ± 0.0017
x2 = 0.9397 | 0.0402 ± 0.00105

CCCCOCCO [2-butoxyethan-1-ol] + c1ccccc1
Details | excess molar enthalpy [kcal/mol]
x2 = 0.0343 | 0.0612 ± 0.00136
x2 = 0.0698 | 0.1 ± 0.0022
x2 = 0.1064 | 0.126 ± 0.00263
x2 = 0.1444 | 0.145 ± 0.00311
x2 = 0.1836 | 0.156 ± 0.00335
x2 = 0.2243 | 0.162 ± 0.00359
x2 = 0.2665 | 0.165 ± 0.00359
x2 = 0.3103 | 0.163 ± 0.00359
x2 = 0.3557 | 0.159 ± 0.00335
x2 = 0.4029 | 0.153 ± 0.00335
x2 = 0.452 | 0.144 ± 0.00311
x2 = 0.503 | 0.133 ± 0.00287
x2 = 0.5562 | 0.119 ± 0.00263
x2 = 0.6116 | 0.105 ± 0.00229
x2 = 0.6694 | 0.0891 ± 0.00196
x2 = 0.7297 | 0.0726 ± 0.0016
x2 = 0.7927 | 0.0544 ± 0.00122
x2 = 0.8586 | 0.0359 ± 0.00105
x2 = 0.9277 | 0.0175 ± 0.001
